Data published in ChEMBL document CHEMBL5038568, “Bioactive Cyclization Optimizes the Affinity of a Proprotein Convertase Subtilisin/Kexin Type 9 (PCSK9) Peptide Inhibitor” (J Med Chem, 2021).
Numbered stars: 1 amine (or outer) side, 2 acyl side, 3 side chain; on linkers, the order of the positions; unused ones are H or OH. Bridge positions count the residues as written; N and C are the ends. Peptide text beside a SMILES is read from it. X1 = N[C@@H](CS[*:1])C(=O)NC(=O)[C@H](CO)N[*:2]

Columns and labels:
[1] = target: T1, Proprotein convertase subtilisin/kexin type 9 (Homo sapiens, UniProt Q8NBP7); assay: Binding affinity to human PCSK9 assessed as dissociation constant
[2] = target: T1, Proprotein convertase subtilisin/kexin type 9; assay: Inhibition of PCSK9 in human HepG2 cells assessed as restoration of surface LDLR level at 50 nM incubated for 2 hrs by Western blot analysis (Rvb= 37.5 +/- 13.9%); type: cell-based; set-up: scale not given: the % may be the effect or the level left
[3] = target: T1, Proprotein convertase subtilisin/kexin type 9; assay: Binding affinity to full length C-terminal Avi/His6-tagged human PCSK9 expressed in Expi293 cells assessed as change in entropy by isothermal titration calorimetric analysis
[4] = target: T1, Proprotein convertase subtilisin/kexin type 9; assay: Binding affinity to full length C-terminal Avi/His6-tagged human PCSK9 expressed in Expi293 cells assessed as dissociation rate constant (Koff) by surface plasmon resonance assay
[5] = target: T1, Proprotein convertase subtilisin/kexin type 9; assay: Binding affinity to full length C-terminal Avi/His6-tagged human PCSK9 expressed in Expi293 cells assessed as equilibrium dissociation constant by surface plasmon resonance assay
HepG2 = assay: Cytotoxicity against human HepG2 cells assessed as reduction in cell viability at 10 uM incubated for 48 hrs by MTT assay; type: toxicity, cell-based; settings: hepg2, 48 h
[6] = target: T1, Proprotein convertase subtilisin/kexin type 9; assay: Inhibition of PCSK9 in human HepG2 cells assessed as restoration of PCSK9-induced reduction in fluorescent LDL uptake at 50 nM incubated for 2 hrs by fluorescence plate reader analysis (Rvb= 46.1 +/- 5.6%); type: cell-based; set-up: scale not given: the % may be the effect or the level left
[7] = target: T1, Proprotein convertase subtilisin/kexin type 9; assay: Inhibition of tEGF-A[HA] binding to biotinylated human PCSK9 incubated for 2 hrs by ELISA based competitive binding assay
[8] = target: T1, Proprotein convertase subtilisin/kexin type 9; assay: Binding affinity to full length C-terminal Avi/His6-tagged human PCSK9 expressed in Expi293 cells assessed as change in enthalpy by isothermal titration calorimetric analysis

CC(C)C[C@H](NC(=O)[C@H](Cc1ccc(O)cc1)NC(=O)[C@H](CCC(=O)O)NC(=O)[C@H](CCC(=O)O)NC(=O)[C@H](Cc1c[nH]c2ccccc12)NC(=O)[C@H](CO)NC(=O)[C@@H](NC(=O)[C@H](Cc1ccccc1)NC(=O)[C@@H](NC(=O)[C@@H](N)[C@@H](C)O)C(C)C)[C@@H](C)O)C(=O)N[C@@H](CC(=O)O)C(=O)N[C@@H](Cc1c[nH]c2ccccc12)C(=O)N[C@H](C(=O)O)C(C)C
Kd [1]: 660 nM

CC(C)C[C@@H]1NC(=O)[C@H](Cc2ccc(O)cc2)NC(=O)[C@H](CCC(=O)O)NC(=O)[C@H](CCC(=O)O)NC(=O)[C@H](Cc2c[nH]c3ccccc23)NC(=O)[C@H](CO)NC(=O)[C@H]([C@@H](C)O)NC(=O)[C@H](Cc2ccccc2)NC(=O)[C@H](C(C)C)NC(=O)[C@H]([C@@H](C)O)NC(=O)[C@@H](N)CSSC[C@H](N)C(=O)NC(=O)[C@H](CO)NC(=O)[C@H](CC(N)=O)NC(=O)[C@H](CCCNC(=N)N)NC(=O)[C@@H]2CCCN2C(=O)[C@H](Cc2cnc[nH]2)NC(=O)[C@H](CC(C)C)NC(=O)[C@H](CC(N)=O)NC(=O)[C@H](CC(N)=O)NC(=O)[C@H](Cc2c[nH]c3ccccc23)NC(=O)[C@H](CC(=O)O)NC1=O (H-CTVFTSWEEYLDWNNLHPRN; linker 1-C via X1)
Activity [2]: 112% | deltaS [3]: -89.5 cal/mol/K | K [4]: 0.02 s⁻¹ | Kd [5]: 974 nM | Activity (HepG2): Non-Toxic | Activity [6]: 97.1% | IC50 [7]: 1260 nM | deltaH [8]: -37.3 kcal/mol
